Converted amounts (≈) assume the structure as drawn. The source made the active and inactive calls. The rule behind the calls is not given here.
How the values were obtained:
Salmonella typhimurium = assay: Antimicrobial activity against Salmonella typhimurium incubated for 16 to 18 hrs by macrodilution method; format: functional, Salmonella enterica subsp. enterica serovar Typhimurium; details: Salmonella enterica
Staphylococcus aureus [1] = assay: Antimicrobial activity against Staphylococcus aureus Newman incubated for 16 to 18 hrs by macrodilution method; format: functional
Edwardsiella tarda = assay: Antimicrobial activity against Edwardsiella tarda incubated for 16 to 18 hrs by macrodilution method; format: functional
Acinetobacter baumannii = assay: Antimicrobial activity against Acinetobacter baumannii incubated for 16 to 18 hrs by macrodilution method; format: functional
Klebsiella aerogenes = assay: Antimicrobial activity against Enterobacter aerogenes incubated for 16 to 18 hrs by macrodilution method; format: functional
Morganella morganii = assay: Antimicrobial activity against Morganella morganii incubated for 16 to 18 hrs by macrodilution method; format: functional
Escherichia coli [2] = assay: Antimicrobial activity against Escherichia coli BW25113 expressing delta-tolC gene incubated for 16 to 18 hrs by macrodilution method; format: functional
Vibrio cholerae = assay: Antimicrobial activity against Vibrio cholerae incubated for 16 to 18 hrs by macrodilution method; format: functional
Shigella boydii = assay: Antimicrobial activity against Shigella boydii incubated for 16 to 18 hrs by macrodilution method; format: functional
Klebsiella pneumoniae = assay: Antimicrobial activity against Klebsiella pneumoniae incubated for 16 to 18 hrs by macrodilution method; format: functional
Escherichia coli [3] = assay: Antimicrobial activity against Escherichia coli BW25113 incubated for 16 to 18 hrs by macrodilution method; format: functional
Escherichia coli [4] = assay: Antimicrobial activity against Escherichia coli MG1655 incubated at 37 degC overnight for 18 hrs; format: functional; details: MG1655, 18 h
Staphylococcus aureus [5] = assay: Antimicrobial activity against Staphylococcus aureus incubated at 37 degC overnight for 18 hrs; format: functional
Escherichia coli [6] = assay: Potentiation of novobiocin-induced antimicrobial effect against Escherichia coli MG1655 at 2.5 to 80 uM incubated at 37 degC overnight for 18 hrs in presence of novobiocin by checkerboard assay; format: functional, organism-based
Escherichia coli [7] = assay: Antimicrobial activity against Escherichia coli MG1655 at 2.5 to 80 uM incubated at 37 degC overnight for 18 hrs in presence of ampicillin by checkerboard assay; format: functional, organism-based
[8] = tested on: Burkholderia pseudomallei; assay: Antimicrobial activity against Burkholderia pseudomallei incubated for 16 to 18 hrs by macrodilution method; format: functional
Yersinia pestis = assay: Antimicrobial activity against Yersinia pestis incubated for 16 to 18 hrs by macrodilution method; format: functional
Francisella tularensis = assay: Antimicrobial activity against Francisella tularensis incubated for 16 to 18 hrs by macrodilution method; format: functional
Bacillus anthracis = assay: Antimicrobial activity against Bacillus anthracis incubated for 16 to 18 hrs by macrodilution method; format: functional
Escherichia coli [9] = assay: Synergistic potentiation of ampicillin-induced antimicrobial effect against Escherichia coli MG1655 at 2.5 to 80 uM incubated at 37 degC overnight for 18 hrs in presence of >4 uM ampicillin by checkerboard assay; format: functional, organism-based
Staphylococcus aureus [10] = assay: Potentiation of kanamycin-induced antimicrobial effect against Staphylococcus aureus at 2.5 to 80 uM incubated at 37 degC overnight for 18 hrs in presence of kanamycin by checkerboard assay; format: functional, organism-based
Burkholderia mallei = assay: Antimicrobial activity against Burkholderia mallei incubated for 16 to 18 hrs by macrodilution method; format: functional
Escherichia coli [11] = assay: Synergistic potentiation of kanamycin-induced antimicrobial effect against Escherichia coli MG1655 at 2.5 to 80 uM incubated at 37 degC overnight for 18 hrs in presence of >4 uM kanamycin by checkerboard assay; format: functional, organism-based
Staphylococcus aureus [12] = assay: Synergistic potentiation of ampicillin-induced antimicrobial effect against Staphylococcus aureus at 2.5 to 80 uM incubated at 37 degC overnight for 18 hrs in presence of >4 uM ampicillin by checkerboard assay; format: functional, organism-based

CCC(CC)CNCC(O)Cn1c2ccc(Cl)cc2c2cc(Cl)ccc21 (stereo not drawn)
MIC (Salmonella typhimurium): 200 µM (≈ 78.7 µg/mL) | MIC (Staphylococcus aureus [1]): 5 µM (≈ 1.97 µg/mL) | MIC (Edwardsiella tarda): 12.5 µM (≈ 4.92 µg/mL) | MIC (Acinetobacter baumannii): 25 µM (≈ 9.83 µg/mL) | MIC (Klebsiella aerogenes): > 200 µM | MIC (Morganella morganii): > 200 µM | MIC (Escherichia coli [2]): 2.5 µM (≈ 0.983 µg/mL) | MIC (Vibrio cholerae): 6.25 µM (≈ 2.46 µg/mL) | MIC (Shigella boydii): 25 µM (≈ 9.83 µg/mL) | MIC (Klebsiella pneumoniae): > 200 µM | MIC (Escherichia coli [3]): 80 µM (≈ 31.5 µg/mL)

CCCCCNCC(O)Cn1c2ccc(Cl)cc2c2cc(Cl)ccc21 (stereo not drawn)
MIC (Escherichia coli [2]): 5 µM (≈ 1.9 µg/mL) | MIC (Escherichia coli [3]): 80 µM (≈ 30.3 µg/mL)

CC(CO)(CO)NCC(O)Cn1c2ccc(Cl)cc2c2cc(Cl)ccc21 (stereo not drawn)
MIC (Escherichia coli [2]): 40 µM (≈ 15.9 µg/mL) | MIC (Escherichia coli [3]): 80 µM (≈ 31.8 µg/mL)

CC1(C)S[C@@H]2[C@H](NC(=O)[C@H](N)c3ccccc3)C(=O)N2[C@H]1C(=O)O [AMPICILLIN]
MIC (Escherichia coli [4]): 10 µM (≈ 3.49 µg/mL) | MIC (Staphylococcus aureus [5]): 1 µM (≈ 0.349 µg/mL)

OCC(CO)(CO)NCC(O)Cn1c2ccccc2c2ccccc21 (stereo not drawn)
MIC (Escherichia coli [2]): > 80 µM | MIC (Escherichia coli [3]): > 320 µM

CO[C@@H]1[C@@H](OC(N)=O)[C@@H](O)[C@H](Oc2ccc3c(O)c(NC(=O)c4ccc(O)c(CC=C(C)C)c4)c(=O)oc3c2C)OC1(C)C [NOVOBIOCIN]
MIC (Escherichia coli [4]): 320 µM (≈ 196 µg/mL) | MIC (Escherichia coli [2]): 1.2 µM (≈ 0.735 µg/mL)

OCC(CO)(CO)NCC(O)Cn1c2ccc(Cl)cc2c2cc(Cl)ccc21 (racemic)
MIC (Salmonella typhimurium): 100 µM (≈ 41.3 µg/mL) | MIC (Staphylococcus aureus [1]): 40 µM (≈ 16.5 µg/mL) | MIC (Edwardsiella tarda): 100 µM (≈ 41.3 µg/mL) | MIC (Acinetobacter baumannii): 200 µM (≈ 82.7 µg/mL) | MIC (Klebsiella aerogenes): 200 µM (≈ 82.7 µg/mL) | MIC (Morganella morganii): 200 µM (≈ 82.7 µg/mL) | MIC (Escherichia coli [2]): 20 µM (≈ 8.27 µg/mL) | MIC (Vibrio cholerae): 50 µM (≈ 20.7 µg/mL) | MIC (Shigella boydii): 100 µM (≈ 41.3 µg/mL) | MIC (Klebsiella pneumoniae): 200 µM (≈ 82.7 µg/mL) | MIC (Escherichia coli [3]): 80 µM (≈ 33.1 µg/mL)

CCC(CO)(CO)NCC(O)Cn1c2ccc(Cl)cc2c2cc(Cl)ccc21 (stereo not drawn)
MIC (Escherichia coli [2]): 20 µM (≈ 8.23 µg/mL) | MIC (Escherichia coli [3]): 160 µM (≈ 65.8 µg/mL)

OCC(CO)(CO)NC[C@@H](O)Cn1c2ccc(Cl)cc2c2cc(Cl)ccc21
MIC (Escherichia coli [2]): 20 µM (≈ 8.27 µg/mL) | MIC (Escherichia coli [3]): 80 µM (≈ 33.1 µg/mL)

CCC(CC)NCC(O)Cn1c2ccc(Cl)cc2c2cc(Cl)ccc21 (stereo not drawn)
MIC (Escherichia coli [2]): 5 µM (≈ 1.9 µg/mL) | MIC (Escherichia coli [3]): 80 µM (≈ 30.3 µg/mL)

NC[C@H]1O[C@H](O[C@H]2[C@H](O)[C@@H](O[C@H]3O[C@H](CO)[C@@H](O)[C@H](N)[C@H]3O)[C@H](N)C[C@@H]2N)[C@H](O)[C@@H](O)[C@@H]1O [KANAMYCIN]
MIC (Escherichia coli [4]): 10 µM (≈ 4.85 µg/mL) | MIC (Staphylococcus aureus [5]): 2.5 µM (≈ 1.21 µg/mL)

OCC(CO)(CO)NCC(O)Cn1ccc2cc(Cl)ccc21 (stereo not drawn)
MIC (Escherichia coli [2]): 320 µM (≈ 105 µg/mL) | MIC (Escherichia coli [3]): > 320 µM

CC(C)(C)NCC(O)Cn1c2ccc(Cl)cc2c2cc(Cl)ccc21 (stereo not drawn)
MIC (Escherichia coli [2]): 40 µM (≈ 14.6 µg/mL) | MIC (Escherichia coli [3]): 160 µM (≈ 58.4 µg/mL)

CC(C)CCNCC(O)Cn1c2ccc(Cl)cc2c2cc(Cl)ccc21 (stereo not drawn)
Activity (Escherichia coli [6]): inactive | MIC (Salmonella typhimurium): 50 µM (≈ 19 µg/mL) | Activity (Escherichia coli [7]): Active | MIC50 [8]: 170 µM (≈ 64.5 µg/mL) | MIC90 [8]: ≥ 170 µM | MIC (Staphylococcus aureus [1]): 5 µM (≈ 1.9 µg/mL) | MIC50 (Yersinia pestis): 21 µM (≈ 7.97 µg/mL) | MIC90 (Yersinia pestis): 42 µM (≈ 15.9 µg/mL) | MIC50 (Francisella tularensis): 5 µM (≈ 1.9 µg/mL) | MIC90 (Francisella tularensis): 10 µM (≈ 3.79 µg/mL) | MIC50 (Bacillus anthracis): 5 µM (≈ 1.9 µg/mL) | MIC90 (Bacillus anthracis): 5 µM (≈ 1.9 µg/mL) | Activity (Escherichia coli [9]): Active | Activity (Staphylococcus aureus [10]): inactive | MIC (Edwardsiella tarda): 25 µM (≈ 9.48 µg/mL) | MIC (Acinetobacter baumannii): 12.5 µM (≈ 4.74 µg/mL) | MIC (Klebsiella aerogenes): 50 µM (≈ 19 µg/mL) | MIC (Morganella morganii): 50 µM (≈ 19 µg/mL) | MIC (Escherichia coli [2]): 2.5 µM (≈ 0.948 µg/mL) | MIC (Vibrio cholerae): 6.25 µM (≈ 2.37 µg/mL) | MIC (Shigella boydii): 25 µM (≈ 9.48 µg/mL) | MIC (Klebsiella pneumoniae): 50 µM (≈ 19 µg/mL) | MIC50 (Burkholderia mallei): 21 µM (≈ 7.97 µg/mL) | MIC90 (Burkholderia mallei): 42 µM (≈ 15.9 µg/mL) | Activity (Escherichia coli [11]): Active | MIC (Escherichia coli [3]): 40 µM (≈ 15.2 µg/mL) | Activity (Staphylococcus aureus [12]): Active

OC(CNC1CCCCC1)Cn1c2ccc(Cl)cc2c2cc(Cl)ccc21 (stereo not drawn)
MIC (Salmonella typhimurium): 100 µM (≈ 39.1 µg/mL) | MIC50 [8]: 164 µM (≈ 64.2 µg/mL) | MIC90 [8]: ≥ 164 µM | MIC (Staphylococcus aureus [1]): 5 µM (≈ 1.96 µg/mL) | MIC50 (Yersinia pestis): 41 µM (≈ 16 µg/mL) | MIC90 (Yersinia pestis): 82 µM (≈ 32.1 µg/mL) | MIC50 (Francisella tularensis): 2.5 µM (≈ 0.978 µg/mL) | MIC90 (Francisella tularensis): 10 µM (≈ 3.91 µg/mL) | MIC50 (Bacillus anthracis): 5 µM (≈ 1.96 µg/mL) | MIC90 (Bacillus anthracis): 10 µM (≈ 3.91 µg/mL) | MIC (Edwardsiella tarda): 50 µM (≈ 19.6 µg/mL) | MIC (Acinetobacter baumannii): 25 µM (≈ 9.78 µg/mL) | MIC (Klebsiella aerogenes): > 200 µM | MIC (Morganella morganii): > 200 µM | MIC (Escherichia coli [2]): 2.5 µM (≈ 0.978 µg/mL) | MIC (Vibrio cholerae): 6.25 µM (≈ 2.45 µg/mL) | MIC (Shigella boydii): 50 µM (≈ 19.6 µg/mL) | MIC (Klebsiella pneumoniae): > 200 µM | MIC50 (Burkholderia mallei): 21 µM (≈ 8.22 µg/mL) | MIC90 (Burkholderia mallei): 82 µM (≈ 32.1 µg/mL) | MIC (Escherichia coli [3]): 40 µM (≈ 15.7 µg/mL)

OCC(CO)(CO)NC[C@H](O)Cn1c2ccc(Cl)cc2c2cc(Cl)ccc21
MIC50 [8]: ≥ 170 µM | MIC90 [8]: ≥ 170 µM | MIC50 (Yersinia pestis): ≥ 170 µM | MIC90 (Yersinia pestis): ≥ 170 µM | MIC50 (Francisella tularensis): 85 µM (≈ 35.1 µg/mL) | MIC90 (Francisella tularensis): 170 µM (≈ 70.3 µg/mL) | MIC50 (Bacillus anthracis): 42 µM (≈ 17.4 µg/mL) | MIC90 (Bacillus anthracis): 42 µM (≈ 17.4 µg/mL) | MIC (Escherichia coli [2]): 20 µM (≈ 8.27 µg/mL) | MIC50 (Burkholderia mallei): ≥ 170 µM | MIC90 (Burkholderia mallei): ≥ 170 µM | MIC (Escherichia coli [3]): 80 µM (≈ 33.1 µg/mL)

CC(C)CCNCCCn1c2ccc(Cl)cc2c2cc(Cl)ccc21
MIC (Escherichia coli [2]): 5 µM (≈ 1.82 µg/mL) | MIC (Escherichia coli [3]): 80 µM (≈ 29.1 µg/mL)

OCC(CO)NCC(O)Cn1c2ccc(Cl)cc2c2cc(Cl)ccc21 (stereo not drawn)
MIC (Escherichia coli [2]): 20 µM (≈ 7.67 µg/mL) | MIC (Escherichia coli [3]): 40 µM (≈ 15.3 µg/mL)

— ChEMBL document CHEMBL3576856, “Membrane-Targeting DCAP Analogues with Broad-Spectrum Antibiotic Activity against Pathogenic Bacteria” (2015)
